In US10130619B2, “Amido thiadiazole derivatives as NADPH oxidase inhibitors” (GENKYOTEX SUISSE SA, priority 2014, dated 2018):

Target: hNOX1 (Homo sapiens (Human), UniProt Q9Y5S8)
Assay: ROS production measurement on hNOX1 membranes (Amplex Red fluorescence assay, assay 1)
Type: biochemical
Settings: assay 1: membranes from CHO cells overexpressing hNox1, Amplex Red/HRP fluorescence, NADPH 30 μM; non linear regression (GraphPad Prism); read-out: Nox1 inhibitory constant Ki
Experimental: Reactive oxygen species (ROS) production generated by hNOX1 enzyme was measured by fluorescence in both cellular and membrane-based assays using the Amplex® Red reagent. In the presence of horseradish peroxidase (HRP), the Amplex® Red reagent (10-acetyl-3,7-dihydroxyphenoxazine, AR), which is a colorless and nonfluorescent derivative of dihydroresorufin, reacts with H2O2 with a 1:1 stoichiometry to produce highly fluorescent resorufin at an excitation and emission wavelengths of 544 nm and 590 nm, respectively.
After resuspension in sonication buffer (11% sucrose, 120 mM NaCl, 1 mM EGTA in PBS, pH 7.4), cells were broken by sonication and centrifuged (200 g, 10 min). The supernatant was layered onto a 17/40% (w/v) discontinuous sucrose gradient and centrifuged (150,000 g for 30 min). Membrane fractions were collected from the 17/40% interface, aliquoted in 10 μl samples and were stored at −80° C. Protein concentration was determined with Bradford reagent. Flavin Adenine Dinucleotide (FAD) (catalog # F6625-500MG), MgCl2 (catalog # M8266-100G), Phosphatidic Acid (PA) (catalog # P3591-50MG) were purchased from Sigma-Aldrich. […] NADPH (catalog #A1395, 0500) was purchased from Applichem. Amplex red (AR) (catalog # A22177) was purchased from Invitrogen. […] FLUOstar OPTIMA microplate reader was supplied by BMG Labtech (Germany). Zephyr® Compact Liquid Handling Workstation was supplied by PerkinElmer (Germany).
Assay 1: ROS Production Measurement on hNOX1 Membranes
All solutions were placed on ice and protected from light.
The NADPH was dissolved in water at a concentration of 12 mM and was transferred in a metal transfer plate kept at 4° C. The NADPH was added to the assay plate to initiate the reaction just before the measurement.
Serial dilution (1:3, 10 serial dilution) of the compounds was performed in 100% DMSO in 96 well polypropylene plate—Row B-H […], Row A, Column 1-10 contained reference compound. Starting concentration was 10^−2 M (10 mM). Final concentration in assay was 10^−4 M (100 μM). Compounds were diluted twice in PBS buffer by transferring 30 μl/well of PBS into 30 μl/well compounds sample in DMSO using Zephyr® Compact Liquid Handling Workstation. Control wells-columns 1 and 12-contained 60 μl DMSO in 50% PBS pH7.
Reaction mixture is dispensed using Zephyr® Compact Liquid Handling Workstation. 90 μl of mix with membrane were dispensed into 96 well black plates—Column 2-11, Column 1 Row A-D, Column 12 Row E-H. 90 μl of control mix were dispensed into assay plate—Column 1 Row E-H, Column 12 Row A-D, which are wells for measuring background signal. 2 μl of compounds were dispensed into each well of assay plate using Zephyr® Compact Liquid Handling Workstation. The reaction mixture with compounds was incubated in assay plates for 20 min at 37° C. in a Titramax microplate incubator with gentle agitation. 10 μl of NADPH is dispensed to the assay plate. Fluorescence reading was recorded with the FLUOstar OPTIMA microplate reader for 10 min at 37° C. (8 cycles, 1 cycle duration 55 sec).

Sequence of hNOX1 (Q9Y5S8 whole entry): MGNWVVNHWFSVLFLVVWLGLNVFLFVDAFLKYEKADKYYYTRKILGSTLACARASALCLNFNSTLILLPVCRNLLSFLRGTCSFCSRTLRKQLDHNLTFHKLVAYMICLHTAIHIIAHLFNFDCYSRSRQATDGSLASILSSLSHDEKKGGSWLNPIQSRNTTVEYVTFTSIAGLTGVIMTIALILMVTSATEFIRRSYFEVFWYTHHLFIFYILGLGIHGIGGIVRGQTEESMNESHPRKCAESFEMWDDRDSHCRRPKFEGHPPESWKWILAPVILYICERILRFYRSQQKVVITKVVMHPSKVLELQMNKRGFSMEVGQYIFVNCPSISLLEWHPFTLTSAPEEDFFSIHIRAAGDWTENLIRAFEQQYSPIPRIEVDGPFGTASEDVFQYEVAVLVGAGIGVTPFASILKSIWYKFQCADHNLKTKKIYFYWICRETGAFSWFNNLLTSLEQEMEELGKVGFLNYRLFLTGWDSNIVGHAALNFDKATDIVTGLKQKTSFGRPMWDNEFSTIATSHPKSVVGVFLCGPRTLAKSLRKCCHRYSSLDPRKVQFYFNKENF
Sequence of hNOX1 (P13498 whole entry partner): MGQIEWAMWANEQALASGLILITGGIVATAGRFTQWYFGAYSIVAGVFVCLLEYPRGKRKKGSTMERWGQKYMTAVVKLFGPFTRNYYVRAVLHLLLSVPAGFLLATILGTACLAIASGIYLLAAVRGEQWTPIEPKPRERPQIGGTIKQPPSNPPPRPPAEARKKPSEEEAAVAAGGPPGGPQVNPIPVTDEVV

Compound | Ki
COc1cc(C(=O)Nc2nnc(-c3ccncc3)s2)ccc1O[C@@H](CCN1CCCC1)c1ccccc1 [Example 9, (S)-3-methoxy-4-(1-phenyl-3-(pyrrolidin-1-yl)propoxy)-N-(5-(pyridin-4-yl)-1,3,4-thiadiazol-2-yl)benzamide] | 29 nM
COc1cc(C(=O)Nc2nnc(-c3ccncc3)s2)ccc1O[C@@H](CN1CCCC1)c1ccccc1 [Example 10, (R)-3-methoxy-4-(1-phenyl-2-(pyrrolidin-1-yl)ethoxy)-N-(5-(pyridin-4-yl)-1,3,4-thiadiazol-2-yl)benzamide] | 49 nM
COc1cc(C(=O)Nc2nnc(-c3ccncc3)s2)ccc1OCc1nccn1C [Example 19, 3-methoxy-4-((1-methyl-1H-imidazol-2-yl)methoxy)-N-(5-(pyridin-4-yl)-1,3,4-thiadiazol-2-yl)benzamide] | 220 nM
COCCNc1cc(C(=O)Nc2nnc(-c3ccncc3)s2)cnc1O[C@@H](C)c1ccccc1 [Example 22, (S)-5-((2-methoxyethyl)amino)-6-(1-phenylethoxy)-N-(5-(pyridin-4-yl)-1,3,4-thiadiazol-2-yl)nicotinamide] | 18 nM
CN1CCN(c2cc(C(=O)Nc3nnc(-c4ccncc4)s3)cnc2OCc2ccccc2)CC1 [Example 24, 6-(benzyloxy)-5-(4-methylpiperazin-1-yl)-N-(5-(pyridin-4-yl)-1,3,4-thiadiazol-2-yl)nicotinamide] | 62 nM
CC(C)(O)[C@H](Oc1ncc(C(=O)Nc2nnc(-c3ccncc3)s2)cc1Cl)c1ccccc1 [Example 29, (R)-5-chloro-6-(2-hydroxy-2-methyl-1-phenylpropoxy)-N-(5-(pyridin-4-yl)-1,3,4-thiadiazol-2-yl)nicotinamide] | 64 nM
CC(Cc1ccccc1)Oc1ccc(C(=O)Nc2nnc(-c3ccncc3)s2)cn1 (stereo not shown) [Example 34, 6-((1-phenylpropan-2-yl)oxy)-N-(5-(pyridin-4-yl)-1,3,4-thiadiazol-2-yl)nicotinamide] | 45 nM
C[C@H](Oc1ncc(C(=O)Nc2nnc(-c3ccncc3)s2)cc1OCC1CCOCC1)c1ccccc1 [Example 37, (S)-6-(1-phenylethoxy)-N-(5-(pyridin-4-yl)-1,3,4-thiadiazol-2-yl)-5-((tetrahydro-2H-pyran-4-yl)methoxy)nicotinamide] | 38 nM
O=C(Nc1nnc(-c2ccncc2)s1)c1ccc(O[C@@H](CN2CCOCC2)c2ccccc2)nc1 [Example 39, (R)-6-(2-morpholino-1-phenylethoxy)-N-(5-(pyridin-4-yl)-1,3,4-thiadiazol-2-yl)nicotinamide] | 100 nM
COc1cc(C(=O)Nc2nnc(-c3ccncc3)s2)ccc1CN1Cc2ccccc2C1 [Example 40, 4-(isoindolin-2-ylmethyl)-3-methoxy-N-(5-(pyridin-4-yl)-1,3,4-thiadiazol-2-yl)benzamide] | 190 nM
